Measured values taken from US20260184692A1, “HETEROCYCLIC COMPOUNDS, PREPARATION METHODS AND USES THEREOF” (InventisBio Co., Ltd., priority 2022, published 2026).

Test system: OVCAR3 Cells
Experiment: OVCAR3 Cell Viability Assay (CellTiter-Glo)
Type: cell-based
Settings: Homo sapiens, OVCAR-3, 144 h, 6 days incubation, read-out: OVCAR3 CTG IC50
Method: OVCAR3 Cells (ATCC, Cat #HTB-161) were seeded at a density of 2000 cells/well in a 96-well clear bottom plate (Greiner, Cat #655098) in 100 μL of complete media (RPMI1640+20% FBS+0.01 mg/mL human insulin). One hundred microliter of complete media was added into the blank well (column 1) for low control. Cells were allowed to adhere to the plate overnight in the incubator at 37° C., 5% CO2. On the following day, 0.5 μL of serially-diluted compounds were added to the cells (columns 2-10) and incubated for 6 days at 37 C, 5% CO2 (final 0.5% DMSO concentration); 0.5 μL of DMSO solution was added into the wells (column 11) for high control. Cell viability was detected according to the CellTiter-Glo Luminescent Cell Viability Assay Kit (Promega, Cat #G7573). Luminescence was recorded on the Tecan Spark plate reader. Inhibition rate (IR) of the tested compounds was determined by the following formula: IR (%)=(1−(RLUcompound−RLUlow control)/(RLUhigh control−RLUlow control))×100%. The IC50 value was calculated using the non-linear regression equation: Y=Bottom+(Top−Bottom)/(1+10^((Log IC50−X)×HillSlope)), where X is Log of compound concentration, Y is percent inhibition (IR (%)), Top and Bottom are plateaus in same units as Y.

Row | IC50 [nM] | Structure (SMILES)
1 | < 200 | CC1(F)CCC2(CC1)CN(c1ccc(C#N)c(N3CCC(F)(F)CC3)n1)C(=O)c1ccc(NS(=O)(=O)CCO)cc12 (stereo not drawn) [Compound 105]
2 | < 200 | O=C1c2cnc(NS(=O)(=O)CCO)cc2C2(CCC3(CC3)CC2)CN1c1ccc(F)c(N2CCC(F)(F)CC2)n1 [Compound 107]
3 | 200 to 2000 | CC1(F)CCC2(CC1)CN(c1ccc(C#N)c(NC3CC(F)(F)C3)n1)C(=O)c1ccc(NS(=O)(=O)CCO)cc12 (stereo not drawn) [Compound 111]
4 | 200 to 2000 | CC1(F)CCC2(CC1)CN(c1ccnc(NC3CC(F)(F)C3)n1)C(=O)c1ccc(NS(=O)(=O)CCO)cc12 (stereo not drawn) [Compound 112]
5 | < 200 | CC(C)(C)NS(=O)(=O)c1cccc(N2CC3(CCC4(CC4)CC3)c3cc(NS(=O)(=O)CCO)ccc3C2=O)c1 [Compound 113]
6 | < 200 | N#Cc1ccc(N2CC3(CCC4(CCC4)CC3)c3cc(NS(=O)(=O)CCO)ccc3C2=O)nc1NC1CC(F)(F)C1 [Compound 115]
7 | < 200 | CCS(=O)(=O)Nc1ccc2c(c1)C1(CCC3(CC3)CC1)CN(c1ccc(C#N)c(S(=O)(=O)N3CC(F)(F)C3)c1)C2=O [Compound 118]
8 | < 200 | CC(C)(C)NS(=O)(=O)c1cc(N2CC3(CCC4(CC4)CC3)c3cc(NS(=O)(=O)CCO)ccc3C2=O)ccc1C#N [Compound 119]
9 | < 200 | CC1(C)CCC2(CC1)CN(c1ccc(C#N)c(NC3CC(F)(F)C3)n1)C(=O)c1cc(F)c(NS(=O)(=O)CCO)cc12 [Compound 121]
10 | 200 to 2000 | N#Cc1ccc(N2CC3(CCC4(CC4)CC3)c3cc(NS(=O)(=O)CCO)ccc3C2=O)nc1C(=O)N1CCCC1 [Compound 122]
11 | < 200 | O=C1c2ccc(NS(=O)(=O)CCO)cc2C2(CCC3(CCC3)CC2)CN1c1ccnc(NC2CC(F)(F)C2)n1 [Compound 124]
12 | < 200 | N#Cc1ccc(N2CC3(CCC(F)(F)CC3)c3cc(NS(=O)(=O)CCO)c(F)cc3C2=O)nc1N1CCC(F)(F)CC1 [Compound 126]
13 | < 200 | CC(C)[C@H](N)C(=O)OCCS(=O)(=O)Nc1ccc2c(c1)C1(CCC3(CC3)CC1)CN(c1ccc(C#N)c(N3CCC(F)(F)CC3)n1)C2=O [Compound 132]
14 | < 200 | COc1ccc(N2CC3(CCC4(CC4)CC3)c3cc(NS(=O)(=O)CCOC(=O)[C@@H](N)C(C)C)ccc3C2=O)nc1N1CCC(F)(F)CC1 [Compound 134]
15 | < 200 | CC(C)[C@H](N)C(=O)OCCS(=O)(=O)Nc1ccc2c(c1)C1(CCC3(CC3)CC1)CN(c1ccnc(NC3CC(F)(F)C3)n1)C2=O [Compound 135]
16 | < 200 | O=C1c2ccc(NS(=O)(=O)CCO)cc2C2(CCC3(CC3)CC2)CN1c1ccc(O)c(N2CCC(F)(F)CC2)n1 [Compound 137]
17 | < 200 | NC(=O)c1ccc(N2CC3(CCC4(CC4)CC3)c3cc(NS(=O)(=O)CCO)ccc3C2=O)nc1N1CCC(F)(F)CC1 [Compound 139]
18 | < 200 | Cn1cc(-c2ccc(N3CC4(CCC5(CC5)CC4)c4cc(NS(=O)(=O)CCO)ccc4C3=O)nc2N2CCC(F)(F)CC2)cn1 [Compound 141]
19 | < 200 | Cn1ccc(-c2ccc(N3CC4(CCC5(CC5)CC4)c4cc(NS(=O)(=O)CCO)ccc4C3=O)nc2N2CCC(F)(F)CC2)n1 [Compound 142]
20 | < 200 | CCNC(=O)c1ccc(N2CC3(CCC4(CC4)CC3)c3cc(NS(=O)(=O)CCO)ccc3C2=O)nc1N1CCC(F)(F)CC1 [Compound 144]
21 | < 200 | CCS(=O)(=O)Nc1ccc2c(c1)C1(CCC3(CC3)CC1)CN(c1ccnc(NC3CC(F)(F)C3)n1)C2=O [Compound 145]
22 | < 200 | COc1ncc(N2CC3(CCC4(CC4)CC3)c3cc(NS(=O)(=O)CCO)ccc3C2=O)nc1N1CCC(F)(F)CC1 [Compound 146]
23 | 200 to 2000 | CN(C)CCS(=O)(=O)Nc1ccc2c(c1)C1(CCC3(CC3)CC1)CN(c1ccc(C#N)c(N3CCC(F)(F)CC3)n1)C2=O [Compound 147]

Row | IC50 [nM] | Structure (SMILES)
24 | 200 to 2000 | COCCS(=O)(=O)Nc1ccc2c(c1)C1(CCC3(CC3)CC1)CN(c1ccnc(NC3CC(F)(F)C3)n1)C2=O [Compound 148]
25 | < 200 | O=C1c2ccc(NS(=O)(=O)CCO)cc2C2(CCC3(CC3)CC2)CN1c1ccc(C(F)F)c(N2CCC(F)(F)CC2)n1 [Compound 149]
26 | < 200 | CCc1ccc(N2CC3(CCC4(CC4)CC3)c3cc(NS(=O)(=O)CCO)ccc3C2=O)nc1N1CCC(F)(F)CC1 [Compound 150]
27 | < 200 | O=C1c2ccc(NS(=O)(=O)CCO)cc2C2(CCC3(CC3)CC2)CN1c1ccc(C2CC2)c(N2CCC(F)(F)CC2)n1 [Compound 151]
28 | < 200 | CN(C)c1ccc(N2CC3(CCC4(CC4)CC3)c3cc(NS(=O)(=O)CCO)ccc3C2=O)nc1N1CCC(F)(F)CC1 [Compound 152]
29 | 200 to 2000 | COc1ccc(N2CC3(CCC4(CC4)CC3)c3cc(NS(=O)(=O)CCN(C)C)ccc3C2=O)nc1N1CCC(F)(F)CC1 [Compound 153]
30 | < 200 | O=C1c2ccc(NS(=O)(=O)CCO)cc2C2(CCC3(CC3)CC2)CN1c1ccc(C(F)(F)F)c(N2CCC(F)(F)CC2)n1 [Compound 154]
31 | < 200 | O=C1c2ccc(NS(=O)(=O)CCO)cc2C2(CCC3(CC3)CC2)CN1c1ccc(OC(F)F)c(N2CCC(F)(F)CC2)n1 [Compound 155]
32 | > 2000 | O=C1c2ccc(NS(=O)(=O)C(F)(F)F)cc2C2(CCC3(CC3)CC2)CN1c1ccnc(NC2CC(F)(F)C2)n1 [Compound 156]
33 | < 200 | N#Cc1ncc(N2CC3(CCC4(CC4)CC3)c3cc(NS(=O)(=O)CCO)ccc3C2=O)nc1N1CCC(F)(F)CC1 [Compound 157]
34 | < 200 | N#Cc1ccc(N2CC3(CCC4(CC4)CC3)c3cc(NS(=O)(=O)CC(F)(F)F)ccc3C2=O)nc1N1CCC(F)(F)CC1 [Compound 158]
35 | 200 to 2000 | N#Cc1ccc(N2CC3(CCC4(CC4)CC3)c3cc(NS(=O)(=O)C(F)(F)F)ccc3C2=O)nc1N1CCC(F)(F)CC1 [Compound 159]
36 | < 200 | Cc1ncc(-c2ccc(N3CC4(CCC5(CC5)CC4)c4cc(NS(=O)(=O)CCO)ccc4C3=O)nc2N2CCC(F)(F)CC2)cn1 [Compound 160]
37 | < 200 | Cc1ccc(-c2ccc(N3CC4(CCC5(CC5)CC4)c4cc(NS(=O)(=O)CCO)ccc4C3=O)nc2N2CCC(F)(F)CC2)cn1 [Compound 161]
38 | < 200 | CCNC(=O)c1ccc(N2CC3(CCC4(CC4)CC3)c3cc(NS(=O)(=O)CCO)ccc3C2=O)nc1NC1CC(F)(F)C1 [Compound 162]
39 | < 200 | Cn1cc(-c2ccc(N3CC4(CCC5(CC5)CC4)c4cc(NS(=O)(=O)CCO)ccc4C3=O)nc2NC2CC(F)(F)C2)cn1 [Compound 163]
40 | < 200 | Cc1cc(-c2ccc(N3CC4(CCC5(CC5)CC4)c4cc(NS(=O)(=O)CCO)ccc4C3=O)nc2N2CCC(F)(F)CC2)ccn1 [Compound 164]
41 | < 200 | NC(=O)c1ncc(N2CC3(CCC4(CC4)CC3)c3cc(NS(=O)(=O)CCO)ccc3C2=O)nc1N1CCC(F)(F)CC1 [Compound 165]
42 | > 2000 | O=C1c2ccc(NS(=O)(=O)CC(F)(F)F)cc2C2(CCC3(CC3)CC2)CN1c1ccnc(NC2CC(F)(F)C2)n1 [Compound 166]
43 | < 200 | NC(=O)c1ccc(N2CC3(CCC4(CC4)CC3)c3cc(NS(=O)(=O)CCO)ccc3C2=O)nc1NC1CC(F)(F)C1 [Compound 167]
44 | < 200 | Cn1cnc(-c2ccc(N3CC4(CCC5(CC5)CC4)c4cc(NS(=O)(=O)CCO)ccc4C3=O)nc2NC2CC(F)(F)C2)c1 [Compound 169]
45 | 200 to 2000 | Cn1ccc(-c2ccc(N3CC4(CCC5(CC5)CC4)c4cc(NS(=O)(=O)CCO)ccc4C3=O)nc2NC2CC(F)(F)C2)n1 [Compound 170]
